Experiment: Exposure to 75% Relative Humidity atmosphere (re-weighing and infrared spectrum)
Type: physicochemical
Conditions: sealed container, 75% Relative Humidity (saturated sodium chloride solution), 21° C., 96 hours
Source text: The sample was re-weighed and the infrared spectrum of the product recorded.

## CN(CCOc1ccc(CC2SC(=O)NC2=O)cc1)c1ccccn1.I (centres unmarked) [Hydriodide, 5-[4-[2-(N-Methyl-N-(2-pyridyl)amino)ethoxy]benzyl]thiazolidine-2,4-dione Hydriodide]
  Infrared spectrum after humidity exposure: no change
  Sample weight after humidity exposure: no weight gain
